Patent US11512078B2, “Addition salt of S1P1 receptor agonist and crystal form thereof, and pharmaceutical composition” (SUZHOU CONNECT BIOPHARMACEUTICALS, LTD., priority 2018, dated 2022)
Read-outs that look alike come from different tables or passages of the source.

Columns and labels:
[1] = start: crystal forms I-XII and amorphous form, cited from earlier work
[2] = Crystal form stability of free state in solvents (Comparative Example 1 of CN105315266A); assay type: physicochemical
From the text: Identification, preparation, a composition and use of the compound represented by formula A are disclosed in patent document CN103450171A (which is incorporated herein by reference in its entirety). Specifically, a method for preparing the compound is disclosed in Example 2. 12 crystal forms of the compound represented by formula A are disclosed in patent document CN105315266A (which is incorporated herein by reference in its entirety).

[3] = Solubility of free state and salt forms in water by HPLC; assay type: physicochemical; settings: stirred 2 h at 25° C., filtered
Protocol: HPLC solubility data were collected with Agilent 1260 high performance liquid chromatograph. The chromatographic column used was Poroshell 120 EC-C18 ([…]), the detection wavelength was 254 nm, column temperature for detection was 40° C., flow rate was 1.5 mL/min, and the sample volume was 5 μL. A sample was dissolved in mobile phase B to prepare a sample solution of a concentration about 0.45 mg/mL, and HPLC detection was performed according to the following gradient elution mode to obtain concentration in the sample.
Then samples were taken and filtered, and the concentrations were detected by HPLC. The solubility of the active ingredient in each of the samples in water was calculated.

[4] = Hygroscopicity by DVS; assay type: physicochemical; settings: relative humidity 20%-80%; for Moisture uptake: DVS; for Appearance: after DVS
Protocol: Dynamic Vapor Sorption (DVS) data and isothermal sorption analysis data were collected with TA Instruments Q5000 TGA. The detection method used was as follows: 1-10 mg of a sample was placed in a platinum crucible, and weight change with the change of relative humidity from 20% to 80% was detected.

[5] = Crystal form storage stability, 30 days under conventional, high-temperature and accelerated conditions; assay type: physicochemical; settings: 1 month under conventional, high-temperature (60° C.) and accelerated conditions (40° C.-75% relative humidity)
Protocol: The crystal form of the sulfate of the compound represented by formula A and the crystal form of the maleate of the compound represented by formula A according to the present application were taken to perform a stability experiment. Specific operation was as follows: 60 mg of the samples of the crystal form of the sulfate of the compound represented by formula A and the crystal form of the maleate of the compound represented by formula A according to the present application were taken and placed for 30 days respectively under conventional condition (sealed and placed in a dark place at 25° C.), high-temperature condition (sealed and placed in a dark place at 60° C.) and accelerated condition (opened and placed in a dark place at 40° C.-75% relative humidity) to study crystal form stability.

[6] = Crystal form stability of salt forms as suspensions in solvents; settings: for Crystal form after stirring suspension: room temperature
[7] = Solubility of sodium salt in water (water gradually added until clear); assay type: physicochemical; settings: thermodynamic from solid; in water at 25° C.; deionized water gradually added, ultrasonication to clear solution
Protocol: The solubility of the sample in water was calculated.

[8] = Thermal stability, decomposition temperature by TGA; assay type: physicochemical
Protocol: Thermogravimetric Analysis (TGA) data were collected with TA Instruments Q500 TGA. The detection method used was as follows: 5-15 mg of a samples was placed in a platinum crucible, and a segmented high-resolution detection method was adopted in which the temperature of the sample was increased from room temperature to 300° C. at a heating rate of 10° C./min under the protection of 40 mL/min dry N2.

[9] = Storage stability of sodium salt crystal form, 4 months; assay type: physicochemical; settings: room temperature, relative humidity 10%-90%

| Structure (SMILES) | Moisture uptake [4] [%] | Appearance [4] | Appearance, XRPD pattern and melting point after storage [5] | Crystal form after stirring suspension ([6]; Acetone, 3 days) | Crystal form after stirring suspension ([6]; Ethanol, 3 days) | Crystal form after stirring suspension ([6]; Isopropanol, 3 days) | Crystal form after stirring suspension ([6]; Water, 3 days) | Crystal form after stirring suspension ([6]; Water:acetone = 1:1, 3 days) | Crystal form after stirring suspension ([6]; Water:acetone = 1:5, 3 days) | Crystal form after stirring suspension ([6]; Water:acetone = 1:10, 3 days) | Crystal form after stirring suspension ([6]; Water:acetone = 1:100, 3 days) | Crystal form after stirring suspension ([6]; Water:ethanol = 1:1, 3 days) | Crystal form after stirring suspension ([6]; Water:ethanol = 1:5, 3 days) | Crystal form after stirring suspension ([6]; Water:ethanol = 1:10, 3 days) | Crystal form after stirring suspension ([6]; Water:ethanol = 1:100, 3 days) | Stability of crystal form in aqueous systems [6] | Solubility [3] [µg/mL] | further results |
| --- | --- | --- | --- | --- | --- | --- | --- | --- | --- | --- | --- | --- | --- | --- | --- | --- | --- | --- |
| CC(C)Cc1ccc(-c2nc(-c3ccc(CN4CC(C(=O)O)C4)c(F)c3)no2)cc1 [1-{2-fluoro-4-[5-(4-isobutylphenyl)-1,2,4-oxadiazole-3-yl]benzyl}-3-azetidinecarboxylic acid] |  |  |  |  |  |  |  |  |  |  |  |  |  |  |  |  |  | Final crystal form ([1]; Acetone): Crystal form IV; Final crystal form ([1]; Ethanol): Crystal form IV; Final crystal form ([1]; Isopropanol): Crystal form IV; Final crystal form ([1]; Water:acetone = 1:1): Crystal form I; Final crystal form ([1]; Water:acetone = 1:5): Crystal form I; Final crystal form ([1]; Water:acetone = 1:10): Crystal form I; Final crystal form ([1]; Water:acetone = 1:100): Crystal form I; Final crystal form ([1]; Water:ethanol = 1:1): Crystal form I; Final crystal form ([1]; Water:ethanol = 1:5): Crystal form I; Final crystal form ([1]; Water:ethanol = 1:10): Crystal form I; Final crystal form ([1]; Water:ethanol = 1:100): Crystal form I; Final crystal form ([1]; Water): Crystal form I; Most stable crystal form ([2]; in an organic solvent): crystal form IV; Most stable crystal form ([2]; in water): crystal form I; Solubility ([3]; listed as compound represented by formula A): 1.1 µg/mL |
| CC(C)Cc1ccc(-c2nc(-c3ccc(CN4CC(C(=O)O)C4)c(F)c3)no2)cc1.O=C(O)/C=C\C(=O)O [maleate of 1-{2-fluoro-4-[5-(4-isobutylphenyl)-1,2,4-oxadiazole-3-yl]benzyl}-3-azetidinecarboxylic acid] | 0.4 | Powder | unchanged | No change | No change | No change | No change | No change | No change | No change | No change | No change | No change | No change | No change | stable | 16.1 | solubility at 2 h ([3]; deionized water, 25 °C, water, thermodynamic from solid): 16 µg/mL |
| CC(C)Cc1ccc(-c2nc(-c3ccc(CN4CC(C(=O)[O-])C4)c(F)c3)no2)cc1.[Na+] [sodium salt of 1-{2-fluoro-4-[5-(4-isobutylphenyl)-1,2,4-oxadiazole-3-yl]benzyl}-3-azetidinecarboxylic acid] |  |  |  | No change | No change | No change | No change | No change | No change | No change | No change | No change | No change | No change | No change | stable |  | Solubility [7]: 10000 µg/mL; Decomposition temperature [8]: 275 °C; Appearance, XRPD pattern and melting point after storage [9]: unchanged |
| CC(C)Cc1ccc(-c2nc(-c3ccc(CN4CC(C(=O)O)C4)c(F)c3)no2)cc1 [sulfate of 1-{2-fluoro-4-[5-(4-isobutylphenyl)-1,2,4-oxadiazole-3-yl]benzyl}-3-azetidinecarboxylic acid] | 0.7 | Powder | unchanged | No change | No change | No change | No change | No change | No change | No change | No change | No change | No change | No change | No change | stable | 19.2 | Solubility ([3]; listed as sulfate of the compound represented by formula A): 19 µg/mL |
